Assay results published in US20240228459A1 (Boundless Bio, Inc., priority 2022, published 2024).

Key:
Wee1 = Wee1 (Homo sapiens, UniProt P30291); test: Wee1 pCDK1 activity (known assay); format: cell-based
Protocol: (§1) The Wee1 pCDK1 and PLK1 activities were determined using known assays.

PLK1 = PLK1 (Homo sapiens, UniProt P53350); test: PLK1 activity (known assay); format: biochemical
Protocol: as §1

Wee1, sequence (P30291 whole entry, species assumed): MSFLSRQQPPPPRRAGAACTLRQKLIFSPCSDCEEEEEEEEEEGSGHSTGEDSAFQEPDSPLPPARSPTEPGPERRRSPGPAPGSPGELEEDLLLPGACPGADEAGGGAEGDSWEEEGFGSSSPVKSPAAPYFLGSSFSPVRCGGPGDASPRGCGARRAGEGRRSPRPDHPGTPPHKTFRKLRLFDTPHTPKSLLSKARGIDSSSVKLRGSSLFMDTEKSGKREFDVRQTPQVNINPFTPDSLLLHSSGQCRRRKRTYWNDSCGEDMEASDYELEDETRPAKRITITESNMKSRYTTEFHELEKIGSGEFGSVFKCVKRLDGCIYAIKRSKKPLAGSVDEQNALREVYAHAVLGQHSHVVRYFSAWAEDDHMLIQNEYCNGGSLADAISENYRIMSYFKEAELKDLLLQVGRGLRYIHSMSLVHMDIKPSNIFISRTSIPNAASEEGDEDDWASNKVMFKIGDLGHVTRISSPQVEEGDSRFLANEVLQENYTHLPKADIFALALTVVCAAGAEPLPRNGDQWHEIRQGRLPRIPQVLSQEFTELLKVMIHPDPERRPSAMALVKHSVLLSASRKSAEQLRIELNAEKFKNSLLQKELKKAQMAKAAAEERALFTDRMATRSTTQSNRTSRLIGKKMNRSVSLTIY
PLK1, sequence (P53350 whole entry, species assumed): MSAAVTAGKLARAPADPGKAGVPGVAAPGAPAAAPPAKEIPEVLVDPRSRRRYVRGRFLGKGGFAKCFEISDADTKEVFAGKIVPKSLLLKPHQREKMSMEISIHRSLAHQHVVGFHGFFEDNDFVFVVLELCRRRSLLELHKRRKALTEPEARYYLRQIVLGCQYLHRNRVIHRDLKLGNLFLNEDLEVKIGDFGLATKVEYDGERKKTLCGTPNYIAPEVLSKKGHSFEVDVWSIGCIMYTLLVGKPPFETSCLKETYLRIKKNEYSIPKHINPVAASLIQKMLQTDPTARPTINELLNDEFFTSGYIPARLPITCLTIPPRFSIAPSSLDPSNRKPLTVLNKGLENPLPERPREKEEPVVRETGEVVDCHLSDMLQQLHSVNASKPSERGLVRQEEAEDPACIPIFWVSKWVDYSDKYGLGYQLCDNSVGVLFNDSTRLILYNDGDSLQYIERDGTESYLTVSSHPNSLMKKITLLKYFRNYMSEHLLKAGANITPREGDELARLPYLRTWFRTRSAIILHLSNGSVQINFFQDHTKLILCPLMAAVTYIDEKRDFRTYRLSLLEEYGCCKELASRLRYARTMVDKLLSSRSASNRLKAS

Compound | IC50 (Wee1) | IC50 (PLK1)
CN1CCN(c2ccc(Nc3ncc(C#N)c(Nc4cccc(N5CCCC5=O)n4)n3)cc2)CC1=O [Example 71, 2-[4-(4-methyl-3-oxo-piperazin-1-yl)anilino]-4-[[6-(2-oxopyrrolidin-1-yl)-2-pyridyl]amino]pyrimidine-5-carbonitrile] | 500 to 1000 nM | 250 to 500 nM
CCC1(O)CCc2ccc(Nc3nc(Nc4cc(F)c(C5CCN(C)CC5)c(F)c4)ncc3C#N)nc21 (centres unmarked) [Example 40, 2-[3,5-difluoro-4-(1-methyl-4-piperidyl)anilino]-4-[(7-ethyl-7-hydroxy-5,6-dihydrocyclopenta[b]pyridin-2-yl)amino]pyrimidine-5-carbonitrile] | 500 to 1000 nM | > 1000 nM
CCC1(O)CCc2ccc(Nc3nc(Nc4ccc(COC)c(N5CCN(C)CC5)c4)ncc3C#N)nc21 (centres unmarked) [Example 50, 4-[(7-ethyl-7-hydroxy-5,6-dihydrocyclopenta[b]pyridin-2-yl)amino]-2-[4-(methoxymethyl)-3-(4-methylpiperazin-1-yl)anilino]pyrimidine-5-carbonitrile] | 500 to 1000 nM | 100 to 250 nM
CCC1(O)CCc2ccc(Nc3nc(Nc4ccc(N5CCN(C)CC5)nc4)ncc3C#N)nc21 (centres unmarked) [Example 14, 4-[(7-ethyl-7-hydroxy-5,6-dihydrocyclopenta[b]pyridin-2-yl)amino]-2-[[6-(4-methylpiperazin-1-yl)-3-pyridyl]amino]pyrimidine-5-carbonitrile] | > 1000 nM | ≤ 100 nM
COCc1cc(Nc2ncc(C#N)c(Nc3cccc(N4CCCC4=O)n3)n2)ccc1C1CCN(C)CC1 [Example 63, 2-[3-(methoxymethyl)-4-(1-methyl-4-piperidyl)anilino]-4-[[6-(2-oxopyrrolidin-1-yl)-2-pyridyl]amino]pyrimidine-5-carbonitrile] | 500 to 1000 nM | > 1000 nM
CCC1(O)CCc2ccc(Nc3nc(Nc4ccc5c(c4)CN(C)CC5(C)C)ncc3C#N)nc21 (centres unmarked) [Example 48, 4-[(7-ethyl-7-hydroxy-5,6-dihydrocyclopenta[b]pyridin-2-yl)amino]-2-[(2,4,4-trimethyl-1,3-dihydroisoquinolin-7-yl)amino]pyrimidine-5-carbonitrile] | 250 to 500 nM | > 1000 nM
CN1CCc2cc(Nc3ncc(C#N)c(Nc4ccc5c(n4)C(C)(O)CC5)n3)ccc2C1(C)C (centres unmarked) [Example 61, 4-[(7-hydroxy-7-methyl-5,6-dihydrocyclopenta[b]pyridin-2-yl)amino]-2-[(1,1,2-trimethyl-3,4-dihydroisoquinolin-6-yl)amino]pyrimidine-5-carbonitrile] | 250 to 500 nM | > 1000 nM
CCC1(O)CCc2ccc(Nc3nc(Nc4ccc(C5CCN(CCO)CC5)c(C)c4)ncc3C#N)nc21 (centres unmarked) [Example 19, 4-[(7-ethyl-7-hydroxy-5,6-dihydrocyclopenta[b]pyridin-2-yl)amino]-2-[4-[1-(2-hydroxyethyl)-4-piperidyl]-3-methyl-anilino]pyrimidine-5-carbonitrile] | 250 to 500 nM | ≤ 100 nM
COCC1CN(C)CCN1c1ccc(Nc2ncc(C#N)c(Nc3cccc(N4CCCC4=O)n3)n2)cc1 (centres unmarked) [Example 69, 2-[4-[2-(methoxymethyl)-4-methyl-piperazin-1-yl]anilino]-4-[[6-(2-oxopyrrolidin-1-yl)-2-pyridyl]amino]pyrimidine-5-carbonitrile] | 250 to 500 nM | > 1000 nM
CCC1(O)CCc2ccc(Nc3nc(Nc4ccc(N5CCN(C(C)=O)C6(CC6)C5)cc4)ncc3C#N)nc21 (centres unmarked) [Example 54, 2-[4-(4-acetyl-4,7-diazaspiro[2.5]octan-7-yl)anilino]-4-[(7-ethyl-7-hydroxy-5,6-dihydrocyclopenta[b]pyridin-2-yl)amino]pyrimidine-5-carbonitrile] | 250 to 500 nM | ≤ 100 nM
CCC1(O)CCc2ccc(Nc3nc(Nc4ccc(N5C6CCC5CN(C)C6)cc4)ncc3C#N)nc21 (single isomer, unassigned) [Example 38] | 250 to 500 nM | 250 to 500 nM
Cc1cc(Nc2ncc(C#N)c(Nc3cccc(N4CCCC4=O)n3)n2)cc2c1CNCC2 [Example 77, 2-[(8-methyl-1,2,3,4-tetrahydroisoquinolin-6-yl)amino]-4-[[6-(2-oxopyrrolidin-1-yl)-2-pyridyl]amino]pyrimidine-5-carbonitrile] | 500 to 1000 nM | 
CN1CCN(c2ccc(Nc3ncc(C#N)c(Nc4cccc(-n5ccccc5=O)n4)n3)cc2)CC1 [Example 3, 2-[4-(4-methylpiperazin-1-yl)anilino]-4-[[6-(2-oxo-1-pyridyl)-2-pyridyl]amino]pyrimidine-5-carbonitrile] | 500 to 1000 nM | 
CCN1CCCc2ccc(Nc3nc(Nc4ccc(N5CCN(C)CC5)cc4)ncc3C#N)nc21 [Example 6, 4-[(8-ethyl-6,7-dihydro-5H-1,8-naphthyridin-2-yl)amino]-2-[4-(4-methylpiperazin-1-yl)anilino]pyrimidine-5-carbonitrile] | 500 to 1000 nM | 

The next lines start with the values.

IC50 (Wee1) | IC50 (PLK1) | Compound
100 to 250 nM | 250 to 500 nM | CCC1(O)CCc2ccc(Nc3nc(Nc4ccc(N5CCN(C)CC5C)cc4)ncc3C#N)nc21 (centres unmarked) [Example 51, 2-[4-(2,4-dimethylpiperazin-1-yl)anilino]-4-[(7-ethyl-7-hydroxy-5,6-dihydrocyclopenta[b]pyridin-2-yl)amino]pyrimidine-5-carbonitrile]
250 to 500 nM | 100 to 250 nM | CCC1(O)CCc2ccc(Nc3nc(Nc4ccc5c(c4)CN(C)CC5)ncc3C#N)nc21 (centres unmarked) [Example 29]
250 to 500 nM | 100 to 250 nM | CCC1(O)CCc2ccc(Nc3nc(Nc4ccc(C5CCN(C)CC5)c(C)c4)ncc3C#N)nc21 (single isomer, unassigned) [Example 22]
100 to 250 nM | ≤ 100 nM | CCC1(O)CCc2ccc(Nc3nc(Nc4ccc(N5C[C@@H](C)N(C)[C@@H](C)C5)cc4)ncc3C#N)nc21 (mixture of isomers) [Example 53, 4-[(7-ethyl-7-hydroxy-5,6-dihydrocyclopenta[b]pyridin-2-yl)amino]-2-[4-[rac-(3R,5S)-3,4,5-trimethylpiperazin-1-yl]anilino]pyrimidine-5-carbonitrile]
250 to 500 nM | ≤ 100 nM | COC1(C)CCc2ccc(Nc3nc(Nc4ccc(N5CCN(C)CC5)cc4)ncc3C#N)nc21 (centres unmarked) [Example 4, 4-[(7-methoxy-7-methyl-5,6-dihydrocyclopenta[b]pyridin-2-yl)amino]-2-[4-(4-methylpiperazin-1-yl)anilino]pyrimidine-5-carbonitrile]
≤ 100 nM | ≤ 100 nM | CCC1(O)CCc2ccc(Nc3nc(Nc4ccc(C5CCN(C)CC5)c(OC)c4)ncc3C#N)nc21 (centres unmarked) [Example 45, 4-[(7-ethyl-7-hydroxy-5,6-dihydrocyclopenta[b]pyridin-2-yl)amino]-2-[3-methoxy-4-(1-methyl-4-piperidyl)anilino]pyrimidine-5-carbonitrile]
250 to 500 nM | > 1000 nM | COCc1cc(Nc2ncc(C#N)c(Nc3cccc(N4CCCC4=O)n3)n2)ccc1N1CCN(C)CC1 [Example 66, 2-[3-(methoxymethyl)-4-(4-methylpiperazin-1-yl)anilino]-4-[[6-(2-oxopyrrolidin-1-yl)-2-pyridyl]amino]pyrimidine-5-carbonitrile]
100 to 250 nM | > 1000 nM | C[C@@H]1CN(C)CCN1c1ccc(Nc2ncc(C#N)c(Nc3cccc(N4CCOC4=O)n3)n2)cc1 (racemic) [Example 10, 4-[[6-(2-oxooxazolidin-3-yl)-2-pyridyl]amino]-2-[4-[rac-(2R)-2,4-dimethylpiperazin-1-yl]anilino]pyrimidine-5-carbonitrile]
250 to 500 nM | ≤ 100 nM | CCC1(O)CCc2ccc(Nc3nc(Nc4ccc(C5CCNCC5)c(C)c4)ncc3C#N)nc21 (centres unmarked) [Example 18, 4-[(7-ethyl-7-hydroxy-5,6-dihydrocyclopenta[b]pyridin-2-yl)amino]-2-[3-methyl-4-(4-piperidyl)anilino]pyrimidine-5-carbonitrile]
≤ 100 nM | 100 to 250 nM | CCC1(O)CCc2ccc(Nc3nc(Nc4ccc(C5CCN(C)CC5)c(C)c4)ncc3C#N)nc21 (centres unmarked) [Example 20, 4-[(7-ethyl-7-hydroxy-5,6-dihydrocyclopenta[b]pyridin-2-yl)amino]-2-[3-methyl-4-(1-methyl-4-piperidyl)anilino]pyrimidine-5-carbonitrile]
100 to 250 nM | ≤ 100 nM | CN1CCN(c2ccc(Nc3ncc(C#N)c(Nc4cccc(N5CCCC5)n4)n3)cc2)CC1 [Example 7, 2-[4-(4-methylpiperazin-1-yl)anilino]-4-[(6-pyrrolidin-1-yl-2-pyridyl)amino]pyrimidine-5-carbonitrile]
100 to 250 nM | > 1000 nM | CCC1CN(C)CCN1c1ccc(Nc2ncc(C#N)c(Nc3cccc(N4CCCC4=O)n3)n2)cc1 (centres unmarked) [Example 68, 2-[4-(2-ethyl-4-methyl-piperazin-1-yl)anilino]-4-[[6-(2-oxopyrrolidin-1-yl)-2-pyridyl]amino]pyrimidine-5-carbonitrile]
≤ 100 nM | 100 to 250 nM | Cc1cc(Nc2ncc(C#N)c(Nc3cccc(N4CCCC4=O)n3)n2)cc2c1CCN(C)C2 [Example 75, 2-[(2,5-dimethyl-3,4-dihydro-1H-isoquinolin-7-yl)amino]-4-[[6-(2-oxopyrrolidin-1-yl)-2-pyridyl]amino]pyrimidine-5-carbonitrile]
100 to 250 nM | ≤ 100 nM | CCC1(O)CCc2ccc(Nc3nc(Nc4ccc(N5CC6CCC(C5)N6C)cc4)ncc3C#N)nc21 (centres unmarked) [Example 35, 4-[(7-ethyl-7-hydroxy-5,6-dihydrocyclopenta[b]pyridin-2-yl)amino]-2-[4-(8-methyl-3,8-diazabicyclo[3.2.1]octan-3-yl)anilino]pyrimidine-5-carbonitrile]
≤ 100 nM | 250 to 500 nM | Cc1cc(Nc2ncc(C#N)c(Nc3cccc(N4CCCC4=O)n3)n2)ccc1C1CCN(C)CC1 [Example 62, 2-[3-methyl-4-(1-methyl-4-piperidyl)anilino]-4-[[6-(2-oxopyrrolidin-1-yl)-2-pyridyl]amino]pyrimidine-5-carbonitrile]
100 to 250 nM |  | Cc1cc(Nc2ncc(C#N)c(Nc3cccc(N4CCOC4=O)n3)n2)ccc1C1CCN(C)CC1 [Example 11, 2-[3-methyl-4-(1-methyl-4-piperidyl)anilino]-4-[[6-(2-oxooxazolidin-3-yl)-2-pyridyl]amino]pyrimidine-5-carbonitrile]
